The record followed here is paper PMC4624405 (Chemistry & biology, 2015).

Where two headings read alike, the source gives them in different places.

Assay [1] addresses T1, sterol C24-methyltransferase (TbSMT) (Trypanosoma brucei, UniProt Q4FKJ2).
T1 sequence (Q4FKJ2 1-359): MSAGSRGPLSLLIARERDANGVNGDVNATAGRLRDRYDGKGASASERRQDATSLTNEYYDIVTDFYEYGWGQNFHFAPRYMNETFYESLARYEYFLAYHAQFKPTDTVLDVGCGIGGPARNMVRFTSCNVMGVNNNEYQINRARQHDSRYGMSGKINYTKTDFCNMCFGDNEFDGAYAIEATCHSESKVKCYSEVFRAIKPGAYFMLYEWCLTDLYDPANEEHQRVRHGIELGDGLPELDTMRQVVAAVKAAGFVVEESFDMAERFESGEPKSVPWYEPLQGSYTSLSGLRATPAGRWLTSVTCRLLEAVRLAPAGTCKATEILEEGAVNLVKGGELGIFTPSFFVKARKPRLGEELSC
Put plainly: recombinant enzyme activity assay, Lineweaver-Burk inhibition. It counts as biochemical.

Assay [2] concerns the target T1, sterol C24-methyltransferase (TbSMT). The class given is biochemical.

`CC(=CCC[C@@H](C)[C@H]1CC[C@@]2(C)C3=C(CC[C@]12C)[C@@]1(C)CC[C@H](O)C(C)(C)[C@@H]1CC3)CF` [26FL, 26-fluorolanosterol]: the Ki in assay [1] came out at 85 µM.

For the molecule `CC(=CCC[C@@H](C)[C@H]1CC[C@H]2C3=CC=C4C[C@@H](O)CC[C@]4(C)[C@H]3CC[C@]12C)CF` [26FCT, 26-fluorocholesta-5,7,24-trienol], in assay [2], the affinity corresponds to a Ki of 75 µM.
